Measured values taken from patent US20120121574A1, “ANTIMICROBIAL, ANTIVIRAL, ANTICANCER AND IMMUNOMODULATORY PEPTIDES AND USES THEREFORE” (priority 2010, published 2012).
pEC50: −log10 of the molar value. Where no end group is shown, it is not given here.

Legend:
C. albicans CA-6 strain = assay: murine model of systemic candidiasis; type: in vivo, Balb/c mice
Description: CFU recovery from the kidneys of mice was determined 7 and 12 days after fungal infection.
Mice were infected intravenously with the opportunistic fungus C. albicans and treated with mouse VHCDR3 or VLCDR3 (used as a negative control) intraperitoneally 4 hr before (200 micrograms), and 1 (100 micrograms) and 2 (100 micrograms) days after infection. Animal survival and fungal burden in kidneys were evaluated in different groups of mice. […] Error bars, s.e.m.

M. furfur 101 strain = assay: CFU assay against M. furfur; type: cell-based, Malassezia furfur
Description: After the incubation period, the cell suspensions were plated on Sabouraud dextrose agar added with Tween 20 (1%), then incubated at 30° C. and observed for CFU enumeration after 72 hours.
After the incubation period, the cell suspensions have been plated on Sabouraud dextrose agar added with Tween 20 (1%), then incubated at 30° C. and observed for CFU enumeration after 72 hours.

A. fumigatus 1163 strain = assay: CFU assay against A. fumigatus conidia; type: cell-based, Aspergillus fumigatus
Description: After the incubation period, the conidial suspensions have been plated on Sabouraud dextrose agar, then incubated at 30° C. and observed for CFU enumeration after 48 hours.
After the incubation period, the cell suspensions have been plated on Sabouraud dextrose agar, then incubated at 30° C. and observed for CFU enumeration after 48 hours.

S. aureus 29213 strain = assay: CFU assay against S. aureus; type: cell-based, Staphylococcus aureus
Description: In vitro activity of N10K against S. aureus 29213 strain. The microbicidal activity of N10K peptide against S. aureus has been evaluated by a conventional CFU assay. Cells of S. aureus 29213 have been incubated at 37° C. for 5 hours in the presence of N10K at the concentration of 50, 45 or 40 micrograms/ml, or in distilled water as control growth. After the incubation period, the cell suspensions have been plated on Mueller Hinton agar, then incubated at 37° C. and observed for CFU enumeration after 24 hours.
In vitro activity of T11F against S. aureus 29213 strain. The bactericidal activity of T11F peptide against S. aureus has been evaluated by a conventional CFU assay. Cells of S. aureus 29213 have been incubated at 37° C. for 5 hours in the presence of T11F at the concentration of 50, 40 or 30 micrograms/ml, or in distilled water as control growth. After the incubation period, the cell suspensions have been plated on Mueller Hinton agar, then incubated at 37° C. and observed for CFU enumeration after 24 hours.
In vitro activity of H4L against S. aureus 29213 strain. The bactericidal activity of H4L peptide against S. aureus has been evaluated by a conventional CFU) assay. […]
In vitro activity of MoA VHCDR3 against S. aureus 29213 strain. The microbicidal activity of MoA VHCDR3 peptide against S. aureus has been evaluated by a conventional CFU assay. […]

[1] = tested on: E. coli ATCC 25922 strain; assay: CFU assay against E. coli; type: cell-based, Escherichia coli
[2] = tested on: K. pneumoniae ATCC 700603 strain; assay: CFU assay against K. pneumoniae; type: cell-based, Klebsiella pneumoniae
[3] = tested on: P. aeruginosa ATCC 25853 strain; assay: CFU assay against P. aeruginosa; type: cell-based, Pseudomonas aeruginosa
[4] = tested on: peritoneal murine macrophages (PM); assay: in vitro immunomodulatory activity on murine peritoneal macrophages (PM); type: cell-based, mouse
Description: In vitro immunomodulatory activity of MoA VHCDR3 on murine immune cells. FIGS. 47-51 are graphs showing TNF-α and IL-6 production by PM and PMN stimulated with MoA CDRs and mouse MoA VHCDR3 uptake by different cell populations. Cells were cultured in the presence or absence (NS) of human and/or mouse CDRs, lipopolisaccharide (LPS), or negative control peptide (NC) (all 10 micrograms/ml) for 18 hr. Both PM and PMN cell populations were 5×10^6/ml. After incubation, TNF-α and IL-6 levels were evaluated in culture supernatants by specific ELISA assays (* P<0.05 treated vs untreated cells, n=7). In FIG. 51, dendritic cells (DC), PM, PMN, and T cells (all 1×10^6/ml) were incubated for 1 hr in the presence or absence (NS) of biotinylated (b)-MoA VHCDR3 or b-NC (both 10 micrograms/ml). After incubation, permeabilized cells were reacted with FITC-labelled mAb to biotin (b) and analyzed by FACScan flow cytometry. Data are reported as the percentage of positive cells *, P<0.05 (b-VHCDR3 treated vs untreated cells, n=5). Error bars, s.e.m. FIGS. 52A and B show graphs and colored cell staining micrograph of kinetic of VHCDR3 uptake by PM. PM (1×10^6/ml) were incubated for different times with b-VHCDR3 or b-NC (all 10 micrograms/ml). After incubation, permeabilized cells were reacted with FITC-labelled mAb to biotin and analyzed by FACScan flow cytometry. Data are reported as the mean fluorescence intensity (MFI) and percentage of positive cells (FIG. 52A) (* P<0.05 b-VHCDR3-treated vs untreated cells, n=7). Error bars, s.e.m. In selected experiments, cells were incubated for 1 hr as above described, reacted with FITC-labelled mAb to biotin in the presence of Evans' Blue as a counter stain, and subsequently examined under fluorescent light microscopy (FIG. 52B). Note the green fluorescence of b-VHCDR3 treated cells. Original magnification 20×. In FIGS. 53 and 54 is shown the phospho-Akt activation and TNF-α production in PM stimulated with MoA VHCDR3. PM (3×10^6/ml) were stimulated for 1 hr in the presence or absence (NS) of MoA VHCDR3, LPS, an irrelevant control peptide (NC) or a scrambled peptide (SP) (all 10 micrograms/ml). After incubation, cell lysates were subjected to Western blotting. Membranes were incubated with Abs to pAkt and Akt; pAkt was normalized against Akt (FIG. 53)*, P<0.05 (treated vs untreated cells, n=5). […] PM (5×10^6/ml) were stimulated for 18 hr as above described. After incubation, TNF-α level was evaluated in culture supernatants by specific ELISA assays. (FIG. 54)*, P<0.05 (treated vs untreated cells, n=5). In FIGS. 55 and 56 is shown the phospho-IkBα activation and TNF-α gene expression in PM stimulated with MoA VHCDR3. PM (3×10^6/ml) were stimulated for 1 hr in the presence or absence (NS) of wortmannin (4 nM), MoA VHCDR3, LPS or NC (all 10 micrograms/ml). After incubation, cell lysates were subjected to Western blotting. Membranes were incubated with Abs to pIkBα and IkBα; pIkBα was normalized against IkBα. (FIG. 55)*, P<0.05 (treated versus untreated cells, n=5); †, P<0.05 (wortmannin-treated vs wortmannin-untreated cells, n=5). For testing the expression level of TNF-α gene, PM (1×10^6/ml) were cultured for 1, 6 and 18 hr as above described. After incubation, total RNA was isolated and analyzed for mRNA expression with RT-PCR (FIG. 56). Transcript copy numbers were determined by qPCR using cDNA as a template. Copy numbers were normalized against the copy number of the GADPH gene (B). […]

C. albicans cells = assay: direct candidacidal activity in vitro (strain not stated); type: cell-based, Candida albicans
[5] = tested on: C. albicans SC5314 strain
Description: In vitro activity of N10K against C. albicans SC5314 strain. The candidacidal activity of N10K peptide against C. albicans was assessed by a conventional colony forming unit (CFU) assay as previously described (Polonelli et al., 2003; Manfredi et al., 2005). Briefly, cells of C. albicans SC5314 were incubated at 37° C. for 6 hours (hr) in the presence of N10K at the concentration indicated of 20, 12.5 or 6.25 microgram/ml, or in distilled water as control (C). After incubation, cell suspensions were plated on Sabouraud dextrose agar and incubated at 30° C. for 48 hours when CFU were counted (** P<0.01 for N10K treated versus untreated cells, by t test). […]
The alanine-substituted derivatives (asd), defined according to the position held by the alanine-substituted aminoacid, were tested against C. albicans by a conventional colony forming unit (CFU) as previously described (Polonelli et al., 2003). Briefly, cells of C. albicans SC5314 were incubated at 37° C. for 6 hours in the presence of N10K or N10K asd at different scalar concentrations or distilled water as control. After incubation, cell suspensions were plated on Sabouraud dextrose agar and incubated at 30° C. for 48 hours when CFU were counted. Based on several independent replications, the EC50 value of each peptide was calculated by nonlinear regression analysis using Graph Pad Prism 4.01 software, San Diego, Calif., USA. […]
In vitro microbicidal activity of N10K derivative with 2 amino acid substitutions, or 80% sequence identity with native N10K, namely peptide Seq Id. No. 25 was tested against Candida albicans SC5314 as determined by Colony Forming Unit assay.

Human monocytes = assay: in vitro immunomodulatory activity on human monocytes; type: cell-based; settings: 10 micrograms/ml, 18 hr, ELISA
Description: Human monocytes or PMN (both 10×10^6/ml) were incubated in RPMI 1640 plus 10% FCS for 18 hr or 6 hr respectively in the presence or in the absence (NS) of LPS, negative control (NC) and peptides (all 10 micrograms/ml). After incubation culture supernatants were collected and tested for cytokines production by specific ELISA. […] Monocytes were incubated for 30 minutes in presence or absence (NS) of NC or N10K (both 10 micrograms/ml) or Cytochalasin D (30 μM). After incubation cells have been stimulated for 30 minutes with non opsonized h.i. […] The percentage of phagocytosis (FIG. 18A) and the medium number of yeast particles adhered or ingested by each monocyte (phagocytic index) (FIG. 18B) have been determined by cytofluorimetric analysis. […] PBMC have been incubated 30 minutes in presence or absence (NS) of NC or N10K (both 10 micrograms/ml). After incubation PBMC have been stimulated for 18 h with LPS (10 micrograms/ml) or h.i. […] The levels of IL-12p40 and IL-6 have been evaluated in the supernatants by ELISA Kit.
After incubation culture supernatants were collected and tested for cytokines production by specific ELISA. […]

[6] = peptide 100 micrograms/ml, 5 hours 37° C.

For “G Q Y G N L W F A Y (GQYGNLWFAY) [MoA VHCDR3, CDR3 fragment of the H chain of a murine IgM mAb directed to difucosyl human blood group A substance]”, the Activity (C. albicans CA-6 strain; Table III, in vivo, Fungus, for MoAVHCDR3 the wrapped cell reads Indirectly cidal up regulation of TNF-α, TLR-4) was “Indirectly”, the “CFU recovery from kidneys” value (C. albicans CA-6 strain; intraperitoneally 200 micrograms 4 hr before, 100 micrograms 1 and 2 days after infection, 5, 7 and 12 days after infection, versus negative control mice) was “impressive decrease” and the “survival of infected mice” value (C. albicans CA-6 strain; intraperitoneally 200 micrograms 4 hr before, 100 micrograms 1 and 2 days after infection, versus untreated or MoA VLCDR3 treated) was “significant increase in survival”. The Activity (M. furfur 101 strain; Table III, in vitro) was “cidal”, the “fungicidal activity (CFU)” value (M. furfur 101 strain; peptide 100 micrograms/ml, 6 hours 30° C.) was “showed fungicidal activity” and the Activity (A. fumigatus 1163 strain; Table III, in vitro) was “cidal”. For the same sequence, the “fungicidal activity (CFU)” value (A. fumigatus 1163 strain; peptide 100 micrograms/ml, 18 hours 30° C.) was “showed fungicidal activity”, the Activity (S. aureus 29213 strain; Table III, in vitro) was “cidal” and the “bactericidal activity (CFU)” value (S. aureus 29213 strain; [6]) was “showed bactericidal activity”. The Activity ([1]; Table III, in vitro) was “cidal”, the “bactericidal activity (CFU)” value [1, 6] was “showed bactericidal activity” and the Activity ([2]; Table III, in vitro) was “cidal”. The “bactericidal activity (CFU)” value [2, 6] was “showed bactericidal activity”, the Activity ([3]; Table III, in vitro) was “cidal” and the “bactericidal activity (CFU)” value [3, 6] was “showed bactericidal activity”. For the same sequence, the TLR-4 expression ([4]; 10 micrograms/ml) was “up-regulates TLR-4”, the “Akt activation (phospho-Akt)” value ([4]; 10 micrograms/ml, 1 hr, Western blotting) was “induces Akt activation” and the “TNF-α production by PM” value ([4]; 10 micrograms/ml, ELISA) was “stimulate PM to produce TNF-α”. The “TNF-α mRNA” value ([4]; 1 hr post stimulation, 10 micrograms/ml) was “detected”, the “Activity (Stimulation of TNF-α, IL-6)” value ([4]; Table III, in vitro, Immune cells) was “Stimulation” and the “activity against C. albicans cells in vitro” value (C. albicans cells) was “ineffective”.

For “NAVSLTCLVK [asd Q2A N10K, N A V S L T C L V K]”, the pEC50 ([5]; SC5314, 6 h) was 5.64, the EC50asd/EC50N10K ([5]; Table IX) was 2.30 and the “IL-6 production by human monocytes” value (Human monocytes) was “strong enhancement”.
